This is an account of results in patent US9688637B2, “3-amidobenzamides and uses thereof for increasing cellular levels of A3G and other A3 family members” (Northwestern University, priority 2014, dated 2017).

The test system of assay [1] is Wild-type HIV-1. The assay can be described thus: A3F-mediated restriction of wild-type HIV-1; virus from 293T stably expressing A3F, TZM-bl readout. Format: cell-based. To be noted: Human immunodeficiency virus 1, HEK-293T, read-out: A3F-mediated Restriction by Compounds on Wild-type HIV-1 (% of HIV replication relative to DMSO treated Control). How it is done: (§1) To test the effect of compounds shown to boost A3G-Luc levels in our screening systems on inhibition of wild-type HIV-1 replication by A3G or A3F, 293T cell lines stably expressing A3G or A3F were plated (750,000 cells per well in 6-well plate). At 24 hrs post plating, 1.5 μg of a wild-type (Vif-positive) HIV-1 proviral vector, NL4.3, was transfected into the 293T stable cell lines expressing either A3G or A3F. At 4 hrs post transfection, either DMSO as a control or an individual compound from series described below was added into the culture medium at a 10 μM concentration. At 1 day post transfection, supernatant fluids containing viral particles were filtered through […] filter to remove cellular debris. To test the effect of compound on HIV-1 replication, TZM-bl indicator cells were plated at a density of 10,000 cells/well in a 96 well culture plate 24 hrs prior to infection. TZM-bl indicator cells express luciferase gene under the control of HIV LTR promoter and are routinely used to measure HIV-1 replication capability. On the day of infection, the culture medium was removed and the cells inoculated with equal amount of HIV-1 particles in triplicate with 100 μl of viral supernatants in culture medium containing 20 μg/ml DEAE-dextran. After 24 hrs of incubation, culture medium was removed from each well and replaced with 100 μl of Britelite Plus luciferase assay substrate. Following 5 min. of incubation at room temperature, 75 μl of each cell lysate was transferred to a 96-well OptiPlate 96 and luminescence was measured in a VICTOR X2 Multilabel Reader as described above. Relative infectivity was calculated by plotting luciferase activity from viral particle from DMSO treated A3G or A3F cell lines as 100%. We only tested effect A3F- or A3G mediated restriction of HIV-1 replication by compounds boosting luciferase activity by more than 160% compared to DMSO control sample.

A further assay has as its system MCF10A. Nature of the assay: Cancer cell death, cell numbers vs DMSO. It is filed as cell-based. As to conditions: 6 μM, 8 days; breast cell line, wild-type functional p53. The text has this:
(§2) To test the effect of the compounds described below on cancer cell death, cell lines derived from different types of cancer were studied in vitro. MCF10A, MCF7, T47D, MDA-MB-157 and MDA-MB-231 are breast cancer cell lines. NHPrE, BHPrE, RWPE1, DU145, and PC3 cells are prostate cell lines. HeLa is cervical cancer cell line. HEK293 is human embryonic kidney cell line lacking A3B expression. There are differences among these cancer cell lines in p53 expression (44-46). MCF10A, MCF7, NHPrE, BHPrE and HEK293 cells have wild-type and functional p53. RWPE1 and HeLa cells have wild-type p53 but the p53 protein in these cell line is not functional because of effects of human papilloma virus E6 protein. T47D, MDA-MB-231, and DU145 cell lines have mutant p53, while MDA-MB-157 and PC3 cells have no p53 expression. 25,000 cells per well were plated in 6 well plates. In the case of HEK293 cells. 500,000 cells per well in 6-well plates were used instead. After 24 hrs, culture medium was replaced with new medium containing either DMSO as control or one of the compounds described below (6 μM per well concentration). After 8 days incubation with compounds, cell numbers were counted from each well and plotted with number of cells from DMSO treated sample as 100%. We performed the experiments at least twice. HEK293, MCF7 and T47D cells they were maintained for 16 days with compounds instead of 8 days.

In the next assay the test system is BHPrE. Nature of the assay: Cancer cell death, cell numbers vs DMSO. As to conditions: 6 μM, 8 days; prostate cell line, wild-type functional p53. It is filed as cell-based.
Description: as §2

The test system of the next assay is RWPE1. Nature of the assay: Cancer cell death, cell numbers vs DMSO. Format: cell-based. To be noted: 6 μM, 8 days; prostate cell line, p53 not functional.
Description: as §2

A further assay relates to T47D. Nature of the assay: Cancer cell death, cell numbers vs DMSO. It is filed as cell-based. To be noted: 6 μM, 16 days; breast cancer cell line, mutant p53.
Description: as §2

The subject of the next assay is PC3. Nature of the assay: Cancer cell death, cell numbers vs DMSO. It is filed as cell-based. As to conditions: 6 μM, 8 days; prostate cell line, no p53 expression.
Description: as §2

Another assay concerns HeLa. Nature of the assay: Cancer cell death, cell numbers vs DMSO. To be noted: 6 μM, 8 days; cervical cancer cell line, p53 not functional. Format: cell-based.
Description: as §2

For the next assay, the system named is NHPrE. Nature of the assay: Cancer cell death, cell numbers vs DMSO. It is filed as cell-based. To be noted: 6 μM, 8 days; prostate cell line, wild-type functional p53.
Description: as §2

For another assay, the system named is DU145. The assay can be described thus: Cancer cell death, cell numbers vs DMSO. It is filed as cell-based. As to conditions: 6 μM, 8 days; prostate cell line, mutant p53.
Description: as §2

For another assay, the system named is MDA-MB-157. The assay can be described thus: Cancer cell death, cell numbers vs DMSO. To be noted: 6 μM, 8 days; breast cancer cell line, no p53 expression. Format: cell-based.
Description: as §2

Another assay deals with MCF7. Nature of the assay: Cancer cell death, cell numbers vs DMSO. As to conditions: 6 μM, 16 days; breast cancer cell line, wild-type functional p53. Format: cell-based.
Description: as §2

The subject of the next assay is MDA-MB-231. Nature of the assay: Cancer cell death, cell numbers vs DMSO. Format: cell-based. To be noted: 6 μM, 8 days; breast cancer cell line, mutant p53.
Description: as §2

The test system of another assay is BC-1. The assay can be described thus: BC-1 primary effusion lymphoma cell proliferation. It is filed as cell-based. As to conditions: primary effusion lymphoma (PEL) cell line (FIG. 10). The text has this: FIG. 10. A primary effusion lymphoma (PEL) cell line (BC-1, infected with both Kaposi's sarcoma herpesvirus and Epstein Barr Virus) is also killed by the listed compounds.

Assay [2] concerns Wild-type HIV-1. Nature of the assay: A3G-mediated restriction of wild-type HIV-1; virus from 293T stably expressing A3G, TZM-bl readout. It is filed as cell-based. As to conditions: Human immunodeficiency virus 1, HEK-293T, read-out: A3G-mediated Restriction by Compounds on Wild-type HIV-1 (% of HIV replication relative to DMSO treated Control). How it is done:
as §1

The test system of assay [3] is HIV NL4-3. Nature of the assay: Infectivity of virions from 293T co-transfected with NL4-3 and A3F, TZM-bl cells. Format: cell-based, HIV-1. As to conditions: co-transfection of 293T with HIV NL4-3 and A3F (FIG. 8). How it is done: (§3) FIG. 8. 293T cells were co-transfected with […] of NL4.3 plasmid DNA and 400 ng of either control or A3F/G DNAs, with or without NU52. Infectivity of equal amounts of resulting viruses (normalized by HIV-1 p24 antigen) were measured using TZM-bl cells. NU-52 treatment of producer cell reduced infectivity of virus produced from those cells.

Assay [4] has as its system HIV NL4-3. Nature of the assay: Infectivity of virions from 293T co-transfected with NL4-3 and A3G, TZM-bl cells. Format: cell-based, HIV-1. To be noted: co-transfection of 293T with HIV NL4-3 and A3G (FIG. 8). How it is done:
as §3

Regarding `COc1ccc(C(=O)Nc2ccc(Cl)c(Cl)c2)cc1NC(=O)CC1CC1` [NU-466], the figures for the activity at 10 µM in the assay with Wild-type HIV-1 [1] and with Wild-type HIV-1 [2] were 59% and 72%, respectively. Besides, the “cell killing (cell numbers vs DMSO)” value in the assay with MCF10A is on record as “not killed”; in the assay with BHPrE, “not killed”; with RWPE1, “kill”; with T47D, “kill”; in the assay on PC3, “kill”; in the assay on HeLa, “kill”. The “cell killing (cell numbers vs DMSO)” value is recorded as “not killed” with NHPrE; “kill” in the assay on DU145; “kill” in the assay on MDA-MB-157; “not killed” in the assay on MCF7; “kill” in the assay on MDA-MB-231. In addition, the BC-1 cell proliferation result with BC-1 was “inhibit BC-1 cell proliferation”.
In the case of `COc1ccc(C(=O)Nc2ccc(Cl)c(Cl)c2)cc1NC(=O)C1CCC1` [NU-302], the activity at 10 µM in the assay on Wild-type HIV-1 [1] was 58%; in the assay on Wild-type HIV-1 [2], 60%. Further, the “cell killing (cell numbers vs DMSO)” value was “not killed” in the assay on MCF10A; “not killed” in the assay on BHPrE; “kill” in the assay with RWPE1; “kill” in the assay with T47D; “kill” in the assay with PC3; “kill” with HeLa. For the same molecule, the “cell killing (cell numbers vs DMSO)” value in the assay on NHPrE is reported as “not killed”; in the assay with DU145, “kill”; with MDA-MB-157, “kill”; with MCF7, “not killed”; in the assay on MDA-MB-231 it was “kill”. The BC-1 cell proliferation entry in the assay on BC-1 is recorded as “inhibit BC-1 cell proliferation”.
Turning to `COc1ccc(C(=O)Nc2ccc(Cl)c(Cl)c2)cc1NC(=O)C(C)C` [NU-52], the activity at 10 µM with Wild-type HIV-1 [1] and in the assay with Wild-type HIV-1 [2] was 57% throughout. Further, the “cell killing (cell numbers vs DMSO)” value in the assay on MCF10A was “not killed”; in the assay with BHPrE it was “not killed”; in the assay with RWPE1, “kill”; with T47D, “kill”; in the assay with PC3, “kill”; with HeLa, “kill”. For the same molecule, the “cell killing (cell numbers vs DMSO)” value with NHPrE was “not killed”; in the assay on DU145 it was “kill”; in the assay on MDA-MB-157, “kill”; in the assay with MCF7, “not killed”; with MDA-MB-231, “kill”. In the assay with BC-1, the BC-1 cell proliferation entry is “inhibit BC-1 cell proliferation”. The infectivity of virions result in the assay with HIV NL4-3 [3] and with HIV NL4-3 [4] was “decreased infectivity” in each case.
